These are literature values, as cited in patent publication US20210054334A1, “DIRECTED DIFFERENTIATION OF ASTROCYTES FROM HUMAN PLURIPOTENT STEM CELLS FOR USE IN DRUG SCREENING AND THE TREATMENT OF AMYOTROPHIC LATERAL SCLEROSIS (ALS)” (Kadimastem Ltd., priority 2013, published 2021).

For this data set the following is noted: ALS.

`Nc1nc2ccc(OC(F)(F)F)cc2s1` [Rilutek, Riluzole]: the extension of lifespan result is reported as “only extends lifespan by a maximum of three months”.
